These are literature values, as cited in patent US8372823B2, “Tetracyclic inhibitors of fatty acid amide hydrolase” (The Scripps Research Institute, priority 2007, dated 2013).

For data set [1] the following is noted: rats; cited from earlier work.
For data set [2] the following is noted: rat; cited from earlier work.
For data set [3] the following is noted: rat; cited from earlier work. The source holds these as a separate data set.
The conditions of data set [4]: rats; cited from earlier work. The source holds these as a separate data set.
For data set [5] the following is noted: rats; cited from earlier work. This is another data set of the same source.
For the next data set, the target named is T1, FAAH (Homo sapiens, UniProt O00519).
T1 sequence (O00519 1-579): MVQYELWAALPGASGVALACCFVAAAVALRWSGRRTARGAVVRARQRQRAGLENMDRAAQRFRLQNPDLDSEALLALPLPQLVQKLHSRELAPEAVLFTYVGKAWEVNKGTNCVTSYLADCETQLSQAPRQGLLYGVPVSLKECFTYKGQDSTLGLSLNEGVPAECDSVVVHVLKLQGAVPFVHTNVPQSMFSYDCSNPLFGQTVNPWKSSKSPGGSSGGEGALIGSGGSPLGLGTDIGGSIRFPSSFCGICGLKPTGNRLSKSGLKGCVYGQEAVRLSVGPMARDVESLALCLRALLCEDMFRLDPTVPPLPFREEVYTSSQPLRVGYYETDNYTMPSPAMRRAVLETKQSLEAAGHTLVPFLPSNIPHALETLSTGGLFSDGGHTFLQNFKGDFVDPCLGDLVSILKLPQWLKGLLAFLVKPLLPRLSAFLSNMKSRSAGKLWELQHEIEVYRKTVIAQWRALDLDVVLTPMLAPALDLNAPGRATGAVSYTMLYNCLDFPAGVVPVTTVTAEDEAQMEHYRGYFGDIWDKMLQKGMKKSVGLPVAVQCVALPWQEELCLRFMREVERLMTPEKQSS
The conditions noted are these: cited from earlier work.

The conditions of data set [6]: rats; cited from earlier work. This is another data set of the same source.
For data set [7] the following is noted: CREAE mice, model of multiple sclerosis; cited from earlier work.

`NC(=O)c1cccc(-c2cccc(OC(=O)NC3CCCCC3)c2)c1` [URB-597]: the “efficacy in zero plus maze model of anxiety” value in data set [1] was “efficacy”. In data set [2], the “analgesic efficacy in formalin test” value was “analgesic efficacy”. In addition, the “analgesic activity in hot plate test” value in data set [3] is “analgesic efficacy”.

With `Cc1nc(-c2ccccc2)c(-c2ccccc2)n1CCCCCCNC(=O)Oc1ccccc1F` [BMS-1], the “analgesic effect in Hargraves test of acute thermal nociception” value in data set [4] is “analgesic effect”. In addition, in data set [5], the “analgesic effect in Chung spinal nerve ligation model” value is “analgesic effect”.

Consider `O=C(CCCCCCc1ccccc1)c1ncc(-c2ccccn2)o1` [OL-135], for which the “inhibition of FAAH” value at FAAH was “potent inhibitor”. Also, in data set [3], the “analgesic activity in hot plate test” value is recorded as “analgesic activity”. Besides, the “analgesic activity in tail emersion test” value in data set [6] is listed as “analgesic activity”.

On to `CCCCCCCCCCCCCCCCS(=O)(=O)F` [AM374], for which the reduction of spasticity result in data set [7] is given as “significantly reduce spasticity”.
